Tests used:
[1] = Rodea-Palomares et al., 2012; cited from earlier work
Aqueous extraction tests = conditions: PFOA 5.5 × 10^−4 M in water (~228 ppm), volume 1:1
Procedure: Aqueous solutions of PFOA were prepared and combined with an organic phase of sensor molecule (9) in dichloromethane. Colour change observations at various sensor concentrations are described in Table 12.

[2] = Preliminary binding study of urea linked host, UV-Vis; conditions: dichloromethane
Description: However, these colorimetric changes were weaker than that observed with the amide equivalent, likely due to the formation of an insoluble precipitate upon binding. Binding of the urea linked porphyrin host with PFOA and PFOS was also confirmed by ^19F NMR spectra (FIG. 7).

[3] = UV-Vis host-guest titration, association constant; format: binding; conditions: short, medium and long chain sensor molecules with PFOA
Procedure: Path length of the quartz cell was 1 cm. For UV-vis titrations, a stock solution of host was prepared (2.2×10^−3 M) in dichloromethane (DCM) and serially diluted to the required concentrations. Working solutions of tetrabutylammonium (TBA) anion salts or guest molecules were prepared in the same manner Host−guest titrations used solutions of guest prepared in the working concentration of host solution, according to the procedure of Thordarson, 2011.
UV-vis spectroscopic host−guest titrations were performed in accordance with the methodologies of Thordarson, 2011. Solutions of host in dichloromethane were prepared. Solutions of guest were then prepared in the host solution. Aliquots of guest in host solution were added to host solution and sequentially analysed until a known molar equivalent of guest was added. The amount of guest added per aliquot was ascertained by a preliminary screening experiment; strong association constants required smaller molar equivalents so more information could be collected. […] The inverse is true for weaker binding interactions. Molar equivalents between 0.1-5 typically provided adequate information for modelling. The data was then used to simulate binding isotherms using www.supramolecular.org (Hibbert and Thordarson, 2016). The data was fitted to 1:1, 1:2 and 2:1 equilibria making no assumptions about the cooperativity of the binding interactions and modelled using different algorithms. These experiments mainly used the Nelder-Mead (Simplex) method.
UV-Vis spectroscopy binding studies were used to determine the association constant for the host (9)−PFOA complex.
A host solution of host (9) in dichloromethane was monitored using UV-Vis analysis as 0.5-10 equivalents of each PFAS was added. […] The data was processed using Bindfit isotherm simulators using both Nelder-Mead and L-BFGS-B methods (Thordarson, 2011).
To highlight any potential binding preferences across the PFCAs from the host molecules, triplicates of host−guest addition titrations were performed using host (9) and the TBA salts of the nine different deprotonated PFCAs.

[4] = Colorimetric calibration chart, RGB response to known PFOA concentrations; conditions: PFOA 0.7 ppm, dichloromethane
Procedure: The host molecules were combined with known concentrations of PFOA to provide RGB colour responses, which were used to create a colorimetric calibration chart that could be trialled as an indicator for estimating the total concentration of a range of any PFCAs. Solutions of each host molecule (1.00×10^−5 M) were prepared in dichloromethane. Solutions of PFOA in dichloromethane were prepared across a range of concentrations (0→16 ppm, 4.00×10^−5 M). Each host (2 mL) was combined with each PFOA concentration (1 mL, final concentration 0→1.33×10^−5 M) and photographed under equivalent lighting conditions. The average colour of each solution was then found using ImageJ RGB analysis, and a colour chart was produced.
For this reason, parametrization of the RGB values can be useful for interpreting results. The RGB response parameter can be calculated using the RGB values of the “blank” host solution (Šafranko et al., 2019) and the effective intensities of the individual RGB values of a sample (Tahir et al., 2016):
Here, H, indicates the values for the host solution, and S, indicates the response for a sample containing a PFCA, so that ΔR, ΔG, and ΔB give the colour differences. The RGB parameter is the response due to the relative difference in the RGB intensities:
The RGB values collected for each host with a range of known concentrations of PFOA in dichloromethane were parameterized and used to determine a relationship between concentration of analyte and RGB response values. […] The relationship between RGB response values and concentrations of PFOA could now be tested for accuracy in determining the concentration of any PFCA.

[5] = 1H NMR titration with GenX in CDCl3; format: binding; conditions: host 6.85×10^−4 M in CDCl3, 20 μL aliquots of guest
[6] = PFCA guest response across the nine PFCAs (UV-Vis, RGB, one-way ANOVA variance); conditions: dichloromethane
Procedure: (§1) Experiments were performed at concentrations that could be monitored by the naked eye for practical sensing of PFAS in the field. Complexes of hosts (9), (11) and (12) were formed with the nine different perfluorocarboxylic acids (PFCAs) shown in Table 2 above and the colours of each host−PFCA complex were photographed in a lightbox and analysed using ImageJ software RGB analysis. Pixels of the solution were chosen at random to provide an RGB value. Multiple RGB values were recorded for each host−PFCA solution, and an average colour can be produced. From those values an RGB parameter was used to give a response value for modelling (Tahir et al., 2016).
(§2) After preliminary screenings, UV-Vis spectra were collected before and after the addition of 1 molar equivalent of each PFCA for each host, and the degree of complexation was noted by shifts in the Soret bands and formation of a peak at ca. 650 nm. To eliminate dilution effects, PFCA guest solutions were prepared in the equivalent concentration of host. If there was a notable host−guest interaction for a particular PFCA, the host−guest binding was investigated with more rigorous UV-Vis experiments, binding studies, and further colour analyses. Throughout these investigations, PFOA was considered the “average” PFCA both because of its position in the range of PFCA sizes and because its prevalence is often an indication of broader PFAS contamination. In any experiment where binding was further investigated for a particular PFCA, it was typically replicated with PFOA for comparison.
One-way factorial ANOVA was used to examine the dependence (or independence) of two or more factors affecting the dependent variable concurrently, in the present case the change in absorption, or the change in RGB response across the tested PFCAs, or across the different hosts. This analysis was used to determine the variance in the responses of each host across the different PFCAs. […]

[7] = PFCA guest response screening (RGB analysis, UV-Vis)
Procedure: A Puluz® 20 cm portable light tent with moderate and dispersed white LED lighting was used to photograph samples using an iPhone 6S plus camera on a fixed tripod. The automatic flash settings were disabled so there was no reflective interference on the sample vials. Samples that were being directly compared were photographed together to ensure lighting conditions and settings were consistent. The photographs were analysed using ImageJ software according to the procedure of Gallagher, 2014b. Multiple RGB values were chosen from areas of each sample at random to provide an “average” RGB value (Menesatti et al., 2012; Gallagher, 2014a; Phuangsaijai et al., 2021). Those RGB values were used to produce an artificial colour tile for visual comparison, or parameterized for modelling.
To quantify a colour difference, RGB values were transformed within the CIELab colour space. The difference, expressed as ΔE, was determined by measuring the relative distance between two colours. The numeric ΔE value can be used to predict how the two colours are perceived by a standard observer; a ΔE>2 is considered the minimum value to achieve a “just noticeable difference” (JND) (Table 1), which is the smallest difference required for an untrained observer to be able to determine two colours as being different (Castillo et al., 2021).
as §1, §2

In the case of O=C(O)C(F)(F)C(F)(F)C(F)(F)C(F)(F)C(F)(F)C(F)(F)C(F)(F)F [PFOA, Perfluorooctanoic acid], the logKo/w [1] is listed as “ca. 6.44”.

For O=C(NC(=O)C(F)(F)C(F)(F)C(F)(F)C(F)(F)C(F)(F)C(F)(F)C(F)(F)F)Nc1ccccc1-c1c2nc(c(-c3ccccc3NC(=O)NC(=O)C(F)(F)C(F)(F)C(F)(F)C(F)(F)C(F)(F)C(F)(F)C(F)(F)F)c3ccc([nH]3)c(-c3ccccc3NC(=O)NC(=O)C(F)(F)C(F)(F)C(F)(F)C(F)(F)C(F)(F)C(F)(F)C(F)(F)F)c3nc(c(-c4ccccc4NC(=O)NC(=O)C(F)(F)C(F)(F)C(F)(F)C(F)(F)C(F)(F)C(F)(F)C(F)(F)F)c4ccc1[nH]4)C=C3)C=C2 [host (10), 5,10,15,20-tetra-(2-ureaphenyl-pentadecafluoro-octanoyl) porphyrin], the Observations (Aqueous extraction tests; sensor 1.1 × 10^−6 M in DCM, H:G 1:500) was “Some colour change,”, the Observations (Aqueous extraction tests; sensor 2.2 × 10^−3 M in DCM, H:G 4:1) was “Strong colour change” and the Observations (Aqueous extraction tests; sensor 2.2 × 10^−4 M in DCM, H:G 2:5) was “Strong colour change”. The Observations (Aqueous extraction tests; sensor 2.2 × 10^−5 M in DCM, H:G 1:25) was “Strong colour change”, the “colour change by UV-Vis spectrophotometric analysis” value ([2]; addition of PFOA) was “discernible colour change” and the “colour change by UV-Vis spectrophotometric analysis” value ([2]; addition of PFOS) was “discernible colour change”.

In the case of O=C(Nc1ccccc1-c1c2nc(c(-c3ccccc3NC(=O)C(F)(F)C(F)(F)C(F)(F)F)c3ccc([nH]3)c(-c3ccccc3NC(=O)C(F)(F)C(F)(F)C(F)(F)F)c3nc(c(-c4ccccc4NC(=O)C(F)(F)C(F)(F)C(F)(F)F)c4ccc1[nH]4)C=C3)C=C2)C(F)(F)C(F)(F)C(F)(F)F [host (11), α,α,α,α-5,10,15,20-tetra(2-(heptafluorobutanoylamino)phenyl) porphyrin], the K [3] is reported as 1.19e+06 M⁻¹, the “ΔE between host and lowest PFOA concentration” value [4] is reported as 4 and the “1H NMR response to addition of GenX” value [5] is reported as “showed shifts”. The “colorimetric response to all nine PFCAs” value [6] was “strong colorimetric response”, the “Absorbance @ 650 nm” value ([7]; host + one equivalent PFBA in dichloromethane) was 0.113 and the “Absorbance @ 650 nm” value ([7]; host + one equivalent PFDA in dichloromethane) was 0.0469. The “Absorbance @ 650 nm” value ([7]; host + one equivalent PFDoDA in dichloromethane) was 0.0519, the “Absorbance @ 650 nm” value ([7]; host + one equivalent PFHpA in dichloromethane) was 0.1009 and the “Absorbance @ 650 nm” value ([7]; host + one equivalent PFHxA in dichloromethane) was 0.0967. For the same compound, the “Absorbance @ 650 nm” value ([7]; host + one equivalent PFNA in dichloromethane) was 0.0473, the “Absorbance @ 650 nm” value ([7]; host + one equivalent PFOA in dichloromethane) was 0.0977 and the “Absorbance @ 650 nm” value ([7]; host + one equivalent PFPeA in dichloromethane) was 0.1125. For the same compound, the “Absorbance @ 650 nm” value ([7]; host + one equivalent PFUnDA in dichloromethane) was 0.0475, the ΔEHost-PFCA ([7]; host vs host + PFBA) was 45.9 and the ΔEHost-PFCA ([7]; host vs host + PFDA) was 27.0. The ΔEHost-PFCA ([7]; host vs host + PFDoDA) was 27.2, the ΔEHost-PFCA ([7]; host vs host + PFHpA) was 43.2 and the ΔEHost-PFCA ([7]; host vs host + PFHxA) was 44.4. For the same compound, the ΔEHost-PFCA ([7]; host vs host + PFNA) was 26.8, the ΔEHost-PFCA ([7]; host vs host + PFOA) was 40.6 and the ΔEHost-PFCA ([7]; host vs host + PFPeA) was 45.8. It also gave a ΔEHost-PFCA ([7]; host vs host + PFUnDA) of 30.5.

— patent publication US20240166658A1, “PORPHYRIN DERIVATIVES AND USES THEREOF” (University of Tasmania, priority 2021, published 2024)
